# Values joined by “and” are separate entries in the source; they are usually repeats but may differ in a detail not shown here. Equal values may be shown once. Read-outs that look alike come from different tables or passages of the source.
# Legend:
# [1] = biological target: T1, α2,3(N)-sialyltransferase ST3GALIII (Rattus norvegicus, UniProt Q02734); assay: Sialyltransferase activity assay, ST3GALIII; type: biochemical; settings: α2,3-N-link
# T1 construct: purchased Calbiochem
# T1 sequence (Q02734 1-374): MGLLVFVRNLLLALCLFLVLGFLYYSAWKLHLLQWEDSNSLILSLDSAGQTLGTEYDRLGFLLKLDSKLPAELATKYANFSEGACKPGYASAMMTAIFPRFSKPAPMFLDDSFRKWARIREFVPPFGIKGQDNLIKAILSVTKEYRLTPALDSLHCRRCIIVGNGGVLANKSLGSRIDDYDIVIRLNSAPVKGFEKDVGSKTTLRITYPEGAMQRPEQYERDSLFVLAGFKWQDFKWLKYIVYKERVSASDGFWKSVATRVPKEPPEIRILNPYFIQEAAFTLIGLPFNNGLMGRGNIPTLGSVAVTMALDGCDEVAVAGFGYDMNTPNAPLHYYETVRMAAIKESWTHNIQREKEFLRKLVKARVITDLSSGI
# [2] = biological target: T2, α2,6(N)-sialyltransferases ST6GALI (Homo sapiens, UniProt P15907); assay: Sialyltransferase inhibition assay, ST6GALI (reverse-phase HPLC); type: biochemical; settings: for IC50: α2,6-N-link
# T2 construct: purchased RnDSystems.com (R&D Systems)
# T2 sequence (P15907 1-406): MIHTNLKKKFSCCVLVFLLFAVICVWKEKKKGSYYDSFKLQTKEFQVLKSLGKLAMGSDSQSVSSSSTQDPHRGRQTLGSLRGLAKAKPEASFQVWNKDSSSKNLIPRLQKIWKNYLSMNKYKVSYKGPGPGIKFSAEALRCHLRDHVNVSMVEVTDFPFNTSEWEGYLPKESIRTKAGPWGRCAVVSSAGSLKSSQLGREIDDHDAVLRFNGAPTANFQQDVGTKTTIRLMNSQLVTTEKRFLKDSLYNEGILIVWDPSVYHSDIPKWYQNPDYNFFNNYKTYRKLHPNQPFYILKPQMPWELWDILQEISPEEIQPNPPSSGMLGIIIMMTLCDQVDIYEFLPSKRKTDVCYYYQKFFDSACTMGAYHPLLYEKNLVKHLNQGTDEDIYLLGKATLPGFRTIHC
# Description: (§1) The enzymes analyzed in the present study included rat ST3Gal(I), rat ST3Gal(III), and human ST6Gal(I). Rat ST3Gal(I) and rat ST3Gal(Ill), were purchased from Calbiochem®, while human ST6Gal(I) was purchased from RnDSystems.com.
# (§2) Sialyltransferase inhibition assay (α2,6-N-ST) was performed as follows: Sialyltransferase activity was determined by measuring the level of the end product of sialylated saccharides with reverse-phase HPLC. The assay mixtures contained the following components: 200 mM MES buffer; 100 mM NaCl; 0.5 mM EDTA; 0.01% Triton X-100; 1.4 mU ST6GALI; 25 μM Galβ1-4GlcNAc; 1 mM CMP-Neu5Ac and different concentration of Sialyltransferase inhibitors to a total volume of 50 μl. The assay mixture was incubated at 37° C. for 15 mins and then quenched by heating up to 101° C. for 10 mins. The sialylated product is resolved with reversed-phase HPLC. Kinetic data were obtained by fitting the initial rate data to the nonlinear regression equation.
# (§3) Effects of the present compounds on the activity of sialyltransferase, including α2,3(N)-sialyltransferase ST3GALIII, α2,6(N)-sialyltransferases ST6GALI, and α2,3(O)-sialyltransferase ST3GALI, were determined in accordance with procedures described in the “Materials and Methods” section, and results are summarized in Table 1.
# [3] = biological target: T3, α2,3(O)-sialyltransferase ST3GALI (Rattus norvegicus, UniProt Q6H8N0); assay: Sialyltransferase inhibition assay, ST3GALI (reverse-phase HPLC); type: biochemical; settings: for inhibition at 500 µM: measured at 500 μM
# T3 construct: purchased Calbiochem
# T3 sequence (Q6H8N0 1-340): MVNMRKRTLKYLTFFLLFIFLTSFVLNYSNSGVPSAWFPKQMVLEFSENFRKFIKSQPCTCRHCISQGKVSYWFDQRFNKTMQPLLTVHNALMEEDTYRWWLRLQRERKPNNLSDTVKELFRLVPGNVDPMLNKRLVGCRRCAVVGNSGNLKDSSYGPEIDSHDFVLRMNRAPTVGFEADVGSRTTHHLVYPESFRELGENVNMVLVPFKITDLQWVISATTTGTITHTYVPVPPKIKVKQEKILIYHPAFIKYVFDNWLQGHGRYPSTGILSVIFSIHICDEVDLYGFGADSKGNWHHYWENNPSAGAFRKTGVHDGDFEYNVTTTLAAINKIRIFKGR
# Description: as §1
# as §2, with “mU ST3GALI; 2.5 mM T-antigen;” for “mU ST6GALI; 25 μM Galβ1-4GlcNAc;”, “to 101′C” for “to 101° C.”, “product was” for “product is”, “resolved by” for “resolved with”
# as §3
# [4] = biological target: T1, α2,3(N)-sialyltransferase ST3GALIII; assay: Sialyltransferase activity assay, ST3GALIII; type: biochemical; settings: comparative controls with measured ST3GALI IC50
# Description: as §1
# as §2, with “mU ST3GALI; 2.5 mM T-antigen;” for “mU ST6GALI; 25 μM Galβ1-4GlcNAc;”, “to 101′C” for “to 101° C.”, “product was” for “product is”, “resolved by” for “resolved with”
# as §2, §3
# [5] = read-out: ST3GALI inhibition percentage
SMILES,IC50 ([1]; IC50 (μM) ST3GALIII),melting point [°C],IC50 ([2]; IC50 (μM) ST6GALI),"inhibition at 500 µM [3, 5] [%]","inhibition at 1000 µM ([3]; measured at 1 mM, read-out: ST3GALI inhibition percentage) [%]",IC50 ([1]; read-out: IC50 (μM) ST3GALIII) [µM],selectivity ratio ST3GALI/ST6GALI [2],IC50 ([2]; read-out: IC50 (μM) ST6GALI) [µM],"IC50 ([3]; α2,3-O-link) [µM]",selectivity ratio ST3GALI/ST3GALIII [4]
"C[C@H](CCC(=O)OCCN=[N+]=[N-])C1CC[C@H]2[C@@H]3CC[C@@H]4C[C@H](OC(=O)[C@H](CC(=O)O)Nc5ccc([N+](=O)[O-])c6nonc56)CC[C@]4(C)[C@H]3CC[C@]12C (stereo partly drawn) [Compound 1, (3S)-4-(((3R,5R,8R,9S,10S,13R,14S)-17-((R)-5-(2-azidoethoxy)-5-oxopentan-2-yl)-10,13-dimethylhexadecahydro-1H-cyclopenta[a]phenanthren-3-yl)oxy)-3-((7-nitrobenzo[c][1,2,5]oxadiazol-4-yl)amino)-4-oxobutanoic acid]",0.8 µM and 0.77 µM,78 to 79,4.2 µM and 4.33 µM,0,74,–,–,–,–,–
"C[C@H](CCC(=O)O)[C@H]1CC[C@H]2[C@@H]3CC[C@@H]4C[C@H](OC(=O)[C@@H](N)CC(=O)O)CC[C@]4(C)[C@H]3CC[C@]12C [Lith-O-Asp, reference compound]",–,–,–,–,–,12,3,15.78 ± 0.13,39 ± 1.26,3
"COc1ccc2c(CC(=O)N[C@@H](CC(=O)O)C(=O)O[C@@H]3CC[C@@]4(C)[C@H](CC[C@@H]5[C@@H]4CC[C@]4(C)C([C@H](C)CCC(=O)OCCOCCOCCN=[N+]=[N-])CC[C@@H]54)C3)cc(=O)oc2c1 (stereo partly drawn) [Compound 13, (3S)-4-(((3R,5R,8R,9S,10S,10S,3R,14S)-17-((R)-5-(2-(2-(2-azidoethoxy)ethoxy)ethoxy)-5-oxopentan-2-yl)-10,13-dimethylhexadecahydro-1H-cyclopenta[a]phenanthren-3-yl)oxy)-3-(2-(7-methoxy-2-oxo-2H-chromen-4-yl)acetamido)-4-oxo butanoic acid]",–,134 to 135,4.61 ± 0.35 µM,0,–,–,>109,–,–,–
"COc1ccc2c(CC(=O)N[C@@H](CC(=O)O)C(=O)O[C@@H]3CC[C@@]4(C)[C@H](CC[C@@H]5[C@@H]4CC[C@]4(C)C([C@H](C)CCC(=O)OCCN=[N+]=[N-])CC[C@@H]54)C3)cc(=O)oc2c1 (stereo partly drawn) [Compound 11, (3S)-4-(((3R,5R,8R,9S,10 S,13R,14S)-17-((R)-5-(2-azidoethoxy)-5-oxopentan-2-yl)-10,13-dimethylhexadecahydro-1H-cyclopenta[a]phenanthren-3-yl)oxy)-3-(2-(7-methoxy-2-oxo-2H-chromen-4-yl)acetamido)-4-oxobutanoic acid]",–,151 to 152,5.59 ± 0.24 µM,0,–,–,>89,–,–,–
"COc1ccc2c(CC(=O)N[C@@H](CC(=O)O)C(=O)O[C@@H]3CC[C@@]4(C)[C@H](CC[C@@H]5[C@@H]4CC[C@]4(C)C([C@H](C)CCC(=O)OCCOCCOCCOCCOCCN=[N+]=[N-])CC[C@@H]54)C3)cc(=O)oc2c1 (stereo partly drawn) [Compound 15, (3S)-4-(((3R,5R,8R,9S,10S,13R,14S)-17-((R)-1-azido-16-oxo-3,6,9,12,15-pentaoxaicosan-19-yl)-10,13-dimethylhexadecahydro-1H-cyclopenta[a]phenanthren-3-yl)oxy)-3-(2-(7-methoxy-2-oxo-2H-chromen-4-yl)acetamido)-4-oxobutanoic acid]",–,113 to 114,5.69 ± 0.4 µM,0,–,–,>88,–,–,–
"COc1ccc2c(CC(=O)N[C@@H](CC(=O)O)C(=O)O[C@@H]3CC[C@@]4(C)[C@H](CC[C@@H]5[C@@H]4CC[C@]4(C)C([C@H](C)CCC(=O)OCCOCCOCCOCCN=[N+]=[N-])CC[C@@H]54)C3)cc(=O)oc2c1 (stereo partly drawn) [Compound 14, (3S)-4-(((3R,5R,8R,9S,10S,13R,14S)-17-((R)-1-azido-13-oxo-3,6,9,12-tetraoxaheptadecan-16-yl)-10,13-dimethylhexadecahydro-1H-cyclopenta[a]phenanthren-3-yl)oxy)-3-(2-(7-methoxy-2-oxo-2H-chromen-4-yl)acetamido)-4-oxobutanoic acid]",–,126 to 127,4.95 ± 0.37 µM,0,–,–,>101,–,–,–
"COc1ccc2c(CC(=O)N[C@@H](CC(=O)O)C(=O)O[C@@H]3CC[C@@]4(C)[C@H](CC[C@@H]5[C@@H]4CC[C@]4(C)C([C@H](C)CCC(=O)OCCOCCN=[N+]=[N-])CC[C@@H]54)C3)cc(=O)oc2c1 (stereo partly drawn) [Compound 12, (3S)-4-(((3R,5R,8R,9S,10S,13R,14S)-17-((R)-5-(2-(2-azidoethoxy)ethoxy)-5-oxopentan-2-yl)-10,13-dimethylhexadecahydro-1H-cyclopenta[a]phenanthren-3-yl)oxy)-3-(2-(7-methoxy-2-oxo-2H-chromen-4-yl)acetamido)-4-oxobutanoic acid]",–,142 to 143,5.14 ± 0.11 µM,0,–,–,>97,–,–,–
"C[C@H](CCC(=O)OCCOCCN=[N+]=[N-])C1CC[C@H]2[C@@H]3CC[C@@H]4C[C@H](OC(=O)[C@H](CC(=O)O)NC(=O)c5ccc([N+](=O)[O-])cc5)CC[C@]4(C)[C@H]3CC[C@]12C (stereo partly drawn) [Compound 7, (3S)-4-(((3R,5R,8R,9S,10S,13R,14S)-17-((R)-5-(2-(2-azidoethoxy)ethoxy)-5-oxopentan-2-yl)-10,13-dimethylhexadecahydro-1H-cyclopenta[a]phenanthren-3-yl)oxy)-3-(4-nitrobenzamido)-4-oxobutanoic acid]",–,57 to 58,6.72 ± 0.3 µM,0,–,–,>74,–,–,–
"C[C@H](CCC(=O)OCCN=[N+]=[N-])C1CC[C@H]2[C@@H]3CC[C@@H]4C[C@H](OC(=O)[C@H](CC(=O)O)NC(=O)c5ccc([N+](=O)[O-])cc5)CC[C@]4(C)[C@H]3CC[C@]12C (stereo partly drawn) [Compound 6, (3S)-4-(((3R,5R,8R,9S,10S,13R,14S)-17-((R)-5-(2-azidoethoxy)-5-oxopentan-2-yl)-10,13-dimethylhexadecahydro-1H-cyclopenta[a]phenanthren-3-yl)oxy)-3-(4-nitrobenzamido)-4-oxobutanoic acid]",–,61 to 62,7.21 ± 0.1 µM,0,–,–,>70,–,–,–

# Reference: patent US10889611B2, “Sialyltransferase inhibitors and uses thereof” (Academia Sinica, priority 2015, dated 2021)
